Experimental data taken from patent US20020019389A1, “Urea derivative useful as an anti-cancer agent and process for preparing same” (priority 2000, published 2002).
≈ marks a conversion by molar mass, not a printed value. Read-outs that look alike come from different tables or passages of the source.

Tests used:
SPF ICR mouse [1] = conditions: clinically used comparison drugs, not among the test compounds of b552; species and route not given; cited from earlier work
[2] = test system: A549 (lung cancer) cell line; test: Anti-cancer activity in vitro, A549 cell line; format: cell-based
Procedure: (§1) The anti-cancer activity and toxicity of the compound according to the present invention were evaluated in vitro using A549 (lung cancer), SUN638 (gastric cancer), HCT116 (rectal cancer), and A431 (ovarian cancer) cell lines. The above four (4) cell lines were purchased from Cancer Research Institute, Seoul National University College of Medicine. […] The experiment was basically carried out according to the process described in Monks, A., et al, Journal of National Cancer Institute. 83: 757-766 (1991) and the results are represented in the following Tables 2 and 3.

[3] = test system: SUN638 (gastric cancer) cell line; test: Anti-cancer activity in vitro, SUN638 cell line; format: cell-based
Procedure: as §1

[4] = test system: A431 (ovarian cancer) cell line; test: Anti-cancer activity in vitro, A431 cell line; format: cell-based
Procedure: as §1

A431 cell line = test: Anti-cancer activity in vitro, A431 cell line; format: cell-based; conditions: Homo sapiens, A-431, read-out: LC50
Procedure: as §1

[5] = test system: HCT116 (rectal cancer) cell line; test: Anti-cancer activity in vitro, HCT116 cell line; format: cell-based
Procedure: as §1

SPF ICR mouse [6] = test: Acute toxicity test, single oral administration; format: in vivo; conditions: single administration per oral, 7-day observation
Procedure: (§2) (1) Test Animal: SPF ICR mouse
(§3) (2) Age of the Test Animal: 4 weeks from acquisition 5 weeks from the start of administration
(§4) (3) Gender and Number of Test Animal: respective 18 he and she-mice (6 groups in each of he and she-mice, 3 mice per group)
(§5) (4) Breeding Environment: Temperature 22±3° C., Relative humidity […], Illumination 150-300 Lux
(§6) (5) Method of Administration: Single administration per oral
(§7) (6) Items to be Observed: General symptoms, appearance, weight and autopsy of dead mice
(§8) (8) Medium: 0.5% Tween 80

[7] = Acute toxicity test, single oral administration; format: in vivo; conditions: mouse, in vivo, single administration per oral, 7-day observation
Procedure: as §2, §3, §4, §5, §6, §7, §8

[8] = Homo sapiens, A549, read-out: LC50
[9] = Homo sapiens, A549 Cell Line, read-out: GI50
[10] = SUN638 Cell Line, read-out: GI50
[11] = Homo sapiens, A-431, A431 Cell Line, read-out: GI50
[12] = Homo sapiens, HCT-116, read-out: LC50
[13] = Homo sapiens, HCT-116, HCT116 Cell Line, read-out: GI50
[14] = both sexes, male and female ICR mice

SMILES	LC50 [2, 8]	LC50 ([3]; read-out: LC50)	TGI50 ([4]; A431 Cell Line)	LC50 (A431 cell line)	LC50 [5, 12]	GI50 ([2]; A549 Cell Line)	TGI50 ([2]; A549 Cell Line)	GI50 ([3]; SUN638 Cell Line)	TGI50 ([3]; SUN638 Cell Line)	GI50 ([5]; HCT116 Cell Line)	TGI50 ([5]; HCT116 Cell Line)	other results
COc1cccc2c1C(=O)c1c(O)c3c(c(O)c1C2=O)C[C@@](O)(C(=O)CO)C[C@@H]3O[C@H]1C[C@H](N)[C@H](O)[C@H](C)O1 [Doxorubicin]												LD50 (SPF ICR mouse [1]): 21.1 mg/kg
COc1nc2ccccc2nc1NC(=O)N1CCN(C(c2ccccc2)c2ccccc2)CC1 [Compound 48, 1-[N-(2-methoxyquinoxalin-3-yl)aminocarbonyl]-4-(diphenylmethyl)piperazine]	> 100 µg/mL	> 100 µg/mL	100 µg/mL	> 100 µg/mL	> 100 µg/mL							GI50 [2, 9]: 1.07 µg/mL (≈ 2.36 µM); GI50 [3, 10]: 1.62 µg/mL (≈ 3.57 µM); GI50 [4, 11]: 1.65 µg/mL (≈ 3.64 µM); GI50 [5, 13]: 0.67 µg/mL (≈ 1.48 µM)
COc1cc2c(cc1OC)[C@H](c1ccccc1)CN(C(=O)Nc1nc3ccccc3nc1OC)CC2 [Compound 3, 3-[N-(2-methoxyquinoxalin-3-yl)aminocarbonyl]-(S)-7,8-dimethoxy-1-phenyl-2,3,4,5-tetrahydro-3H-benzazepine]			26.30 µg/mL			1.31 µg/mL (≈ 2.7 µM)	5.62 µg/mL	1.47 µg/mL (≈ 3.03 µM)	9.33 µg/mL	1.31 µg/mL (≈ 2.7 µM)	5.62 µg/mL	LC50 ([2]; A549 Cell Line): >100 µg/mL; LC50 ([3]; SUN638 Cell Line): >100 µg/mL; GI50 ([4]; A431 Cell Line): 2.04 µg/mL (≈ 4.21 µM); LC50 ([4]; A431 Cell Line): >100 µg/mL; LC50 ([5]; HCT116 Cell Line): >100 µg/mL
COc1cc2c(cc1OC)C(c1ccc(F)cc1)CN(C(=O)n1ccnc1)CC2 (stereo not drawn) [Compound 70, 3-[(1H-imidazol-1-yl)carbonyl]-7,8-dimethoxy-1-(4-fluoro)phenyl-2,3,4,5-tetrahydro-3H-benzazepine]						1.12 µg/mL (≈ 2.83 µM)	100 µg/mL	1.78 µg/mL (≈ 4.5 µM)	7.24 µg/mL	1.31 µg/mL (≈ 3.31 µM)	23.98 µg/mL	LC50 ([2]; A549 Cell Line): >100 µg/mL; LC50 ([3]; SUN638 Cell Line): >100 µg/mL; LC50 ([5]; HCT116 Cell Line): >100 µg/mL; LD50 (SPF ICR mouse [6]; male and female ICR mice): 2000 (male and female) mg/kg
C=CCN(CC=C)c1nc(N(CC=C)CC=C)nc(N2CCN(C(=O)n3ccnc3)CC2)n1 [Compound 61, 1-[(1H-imidazol-1-yl)carbonyl]-4-(4,6-bis-diallylamino-[1,3,5]triazin-2-yl)piperazine]	> 100 µg/mL	> 100 µg/mL										GI50 ([2]; Homo sapiens, A549): 6.02 µg/mL (≈ 13.4 µM); GI50 [3]: 2.95 µg/mL (≈ 6.56 µM); LD50 at 7 day ([7]; female ICR mice): 1140 mg/kg; LD50 at 7 day ([7]; male ICR mice): 2330 mg/kg
N.N.[Cl][Pt][Cl] [Cisplatin, cisplatin, reference compound]			28.7 µg/mL			3.8 µg/mL	47.3 µg/mL	1.7 µg/mL	13.3 µg/mL	2.9 µg/mL	32.77 µg/mL	GI50 ([4]; A431 Cell Line): 3.2 µg/mL
N.N.O=C([O-])C1(C(=O)[O-])CCC1.[Pt+2] [Carboplatin]												LD50 (SPF ICR mouse [1]): 150 mg/kg
Cc1cc(C)cc(N2CCN(C(=S)n3ccnc3)CC2)c1 [Compound 56, 1-[(1H-imidazol-1-yl)thiocarbonyl]-4-(3,5-dimethylphenyl) piperazine]	> 100 µg/mL	> 100 µg/mL	28.84 µg/mL	> 100 µg/mL	> 100 µg/mL							GI50 [2, 9]: 2.04 µg/mL (≈ 6.79 µM); GI50 [3, 10]: 1.34 µg/mL (≈ 4.46 µM); GI50 [4, 11]: 1.31 µg/mL (≈ 4.36 µM); GI50 [5, 13]: 1.47 µg/mL (≈ 4.89 µM)
COc1cc2c(cc1OC)C(c1ccccc1)CN(C(=O)Nc1nc3ccccc3nc1OC)CC2 (stereo not drawn) [Compound 2, 3-[N-(2-methoxyquinoxalin-3-yl)aminocarbonyl]-7,8-dimethoxy-1-phenyl-2,3,4,5-tetrahydro-3H-benzazepine]												LD50 (SPF ICR mouse [6]; male and female ICR mice): 2000 (male and female) mg/kg
Cc1cc(C)cc(N2CCN(C(=O)n3ccnc3)CC2)c1 [Compound 55, 1-[(1H-imidazol-1-yl)carbonyl]-4-(3,5-dimethylphenyl)piperazine]	> 100 µg/mL	> 100 µg/mL	67.60 µg/mL	> 100 µg/mL	> 100 µg/mL							GI50 ([2]; Homo sapiens, A549): 1.77 µg/mL (≈ 6.22 µM); GI50 [3]: 1.09 µg/mL (≈ 3.83 µM); GI50 ([4]; Homo sapiens, A-431): 1.38 µg/mL (≈ 4.85 µM); GI50 ([5]; Homo sapiens, HCT-116): 2.08 µg/mL (≈ 7.31 µM)
O=C(N1CCN(c2nc(NCC3CC3)nc(NCC3CC3)n2)CC1)n1ccnc1 [Compound 62, 1-[(1H-imidazol-1-yl)carbonyl]-4-(4,6-bis-cyclopropylmethylamino-[1,3,5]triazin-2-yl)piperazine]	> 100 µg/mL	> 100 µg/mL			> 100 µg/mL							GI50 ([2]; Homo sapiens, A549): 0.48 µg/mL (≈ 1.21 µM); GI50 [3]: 0.61 µg/mL (≈ 1.53 µM); GI50 ([5]; Homo sapiens, HCT-116): 0.38 µg/mL (≈ 0.956 µM); LD50 at 7 day ([7]; female ICR mice): 466 mg/kg; LD50 at 7 day ([7]; male ICR mice): 354 mg/kg
C=CCNc1nc(NCC=C)nc(N2CCN(C(=O)NC(c3ccccc3)c3ccccc3)CC2)n1 [Compound 38, 1-[(diphenylmethyl)aminocarbonyl]-4-(4,6-bis-allylamino-[1,3,5]triazin-2-yl)piperazine]	> 100 µg/mL	> 100 µg/mL	7.24 µg/mL	> 100 µg/mL	> 100 µg/mL							GI50 [2, 9]: 1.28 µg/mL (≈ 2.64 µM); GI50 [3, 10]: 2.75 µg/mL (≈ 5.67 µM); GI50 [4, 11]: 1.41 µg/mL (≈ 2.91 µM); GI50 [5, 13]: 1.28 µg/mL (≈ 2.64 µM); LD50 at 7 day [7, 14]: 2000 mg/kg
COc1cc2c(cc1OC)C(c1ccccc1)CN(C(=O)n1ccnc1)CC2 (stereo not drawn) [Compound 66, 3-[(1H-imidazol-1-yl)carbonyl]-7,8-dimethoxy-1-phenyl-2,3,4,5-tetrahydro-3H-benzazepine]			100 µg/mL			0.38 µg/mL (≈ 1.01 µM)	54.95 µg/mL	0.21 µg/mL (≈ 0.556 µM)	1.73 µg/mL	0.19 µg/mL (≈ 0.503 µM)	7.76 µg/mL	LC50 ([2]; A549 Cell Line): >100 µg/mL; LC50 ([3]; SUN638 Cell Line): >100 µg/mL; GI50 ([4]; A431 Cell Line): 0.28 µg/mL (≈ 0.742 µM); LC50 ([4]; A431 Cell Line): >100 µg/mL; LC50 ([5]; HCT116 Cell Line): >100 µg/mL; LD50 (SPF ICR mouse [6]; female ICR mice): 2000 (female) mg/kg; LD50 (SPF ICR mouse [6]; male ICR mice): 1921 (male) mg/kg
COc1cc2c(cc1OC)C(c1ccccc1)CN(C(=S)n1ccnc1)CC2 (stereo not drawn) [Compound 67, 3-[(1H-imidazol-1-yl)thiocarbonyl]-7,8-dimethoxy-1-phenyl-2,3,4,5-tetrahydro-3H-benzazepine]			30.19 µg/mL			0.66 µg/mL (≈ 1.68 µM)	17.78 µg/mL	1.51 µg/mL (≈ 3.84 µM)	8.12 µg/mL	0.23 µg/mL (≈ 0.584 µM)	13.48 µg/mL	LC50 ([2]; A549 Cell Line): >100 µg/mL; LC50 ([3]; SUN638 Cell Line): >100 µg/mL; GI50 ([4]; A431 Cell Line): 0.70 µg/mL (≈ 1.78 µM); LC50 ([4]; A431 Cell Line): >100 µg/mL; LC50 ([5]; HCT116 Cell Line): >100 µg/mL
Cc1cc(C)cc(N2CCN(C(=O)n3ccnc3)CC2)c1.Cl [Compound 57, 1-[(1H-imidazol-1-yl)carbonyl]-4-(3,5-dimethylphenyl)piperazine hydrochloride]	> 100 µg/mL	> 100 µg/mL	8.31 µg/mL	> 100 µg/mL	> 100 µg/mL							GI50 ([2]; Homo sapiens, A549): 1.77 µg/mL; GI50 [3]: 1.69 µg/mL; GI50 ([4]; Homo sapiens, A-431): 1.51 µg/mL; GI50 ([5]; Homo sapiens, HCT-116): 1.34 µg/mL; LD50 at 7 day [7, 14]: 1160 mg/kg
